From ChEMBL document CHEMBL1142399, “Water-soluble pleuromutilin derivative with excellent in vitro and in vivo antibacterial activity against gram-positive pathogens” (J Med Chem, 2008)
In brackets after ≈: the same amount, converted by molar mass.

Assays:
[1] = system: Peptostreptococcus anaerobius; experiment: Antibacterial activity against Peptostreptococcus anaerobius GAI 5506 by broth microdilution method; format: functional
[2] = system: Peptoniphilus asaccharolyticus; experiment: Antibacterial activity against Peptostreptococcus asaccharolyticus GAI 5534 by broth microdilution method; format: functional
[3] = system: Mycoplasmoides pneumoniae; experiment: Antibacterial activity against Mycoplasma pneumoniae Mac by broth microdilution method; format: functional
Clostridium perfringens = experiment: Antibacterial activity against Clostridium perfringens GAI 5526 by broth microdilution method; format: functional
[4] = system: Propionibacterium granulosum; experiment: Antibacterial activity against Propionibacterium granulosum GAI 7414 by broth microdilution method; format: functional; settings: Cutibacterium granulosum
Moraxella catarrhalis = experiment: Antibacterial activity against Moraxella catarrhalis K1209 by broth microdilution method; format: functional
Enterococcus faecium [5] = experiment: Antibacterial activity against vancomycin-resistant Enterococcus faecium KU1778 clinical isolate by broth microdilution method; format: functional
Atopobium parvulum = experiment: Antibacterial activity against Atopobium parvulum GAI 5542 by broth microdilution method; format: functional; settings: Lancefieldella parvula
Finegoldia magna = experiment: Antibacterial activity against Peptostreptococcus magnus GAI 5528 by broth microdilution method; format: functional
Streptococcus pyogenes = experiment: Antibacterial activity against Streptococcus pyogenes ATCC 12344 by broth microdilution method; format: functional
[6] = system: Streptococcus intermedius; experiment: Antibacterial activity against Streptococcus intermedius GAI 7416 by broth microdilution method; format: functional
[7] = system: Staphylococcus saccharolyticus; experiment: Antibacterial activity against Staphylococcus saccharolyticus GAI 5520 by broth microdilution method; format: functional
Staphylococcus aureus [8] = experiment: microbe, parasite or virus in culture; settings: Smith
Staphylococcus aureus [9] = experiment: microbe, parasite or virus in culture; settings: KMP9
Staphylococcus aureus [10] = experiment: Antibacterial activity against methicillin-susceptible Staphylococcus aureus Smith in mouse dosed iv 1 hr after infection; format: functional
Cutibacterium acnes = experiment: Antibacterial activity against Propionibacterium acnes GAI 5568 by broth microdilution method; format: functional
Streptococcus pneumoniae [11] = experiment: Antibacterial activity against penicillin-susceptible Streptococcus pneumoniae ATCC 49619 in mouse dosed iv 1 hr after infection; format: functional; settings: ATCC 49619, iv
[12] = system: Mycoplasmoides pneumoniae; experiment: Antibacterial activity against Mycoplasma pneumoniae FH Liu by broth microdilution method; format: functional
Staphylococcus aureus [13] = experiment: microbe, parasite or virus in culture
Streptococcus pneumoniae [14] = experiment: Antibacterial activity against penicillin-resistant Streptococcus pneumoniae KT2524 in mouse dosed iv 1 hr after infection; format: functional
Enterococcus faecalis = experiment: microbe, parasite or virus in culture; settings: ATCC 29212
Staphylococcus aureus [15] = experiment: microbe, parasite or virus in culture; remark: listed apart in the source
Haemophilus influenzae = experiment: Antibacterial activity against Haemophilus influenzae TH13 by broth microdilution method; format: functional
Staphylococcus aureus [16] = experiment: Antibacterial activity against methicillin-resistant Staphylococcus aureus KT0116 in mouse dosed iv 1 hr after infection; format: functional
[17] = system: Staphylococcus epidermidis; experiment: Antibacterial activity against Staphylococcus epidermidis ATCC 12228 by broth microdilution method; format: functional
Enterococcus faecium [18] = experiment: microbe, parasite or virus in culture; settings: ATCC 19434
Streptococcus pneumoniae [19] = experiment: Antibacterial activity against penicillin-susceptible Streptococcus pneumoniae ATCC 6303 in mouse pulmonary infection model assessed as survival at 6.25 mg/kg, ip twice daily for 3 days; format: functional; settings: route intraperitoneal
Streptococcus pneumoniae [20] = experiment: microbe, parasite or virus in culture
Streptococcus pneumoniae [21] = experiment: microbe, parasite or virus in culture; settings: ATCC 49619

SMILES	MIC [1] [µg/mL]	MIC [2] [µg/mL]	MIC [3] [µg/mL]	MIC (Clostridium perfringens) [µg/mL]	MIC [4] [µg/mL]	MIC (Moraxella catarrhalis) [µg/mL]	MIC (Enterococcus faecium [5]) [µg/mL]	MIC (Atopobium parvulum) [µg/mL]	MIC (Finegoldia magna) [µg/mL]	MIC (Streptococcus pyogenes) [µg/mL]	MIC [6] [µg/mL]	MIC [7] [µg/mL]	MIC (Staphylococcus aureus [8]) [µg/mL]	MIC (Staphylococcus aureus [9]) [µg/mL]	ED50 (Staphylococcus aureus [10]) [mg/kg]	MIC (Cutibacterium acnes) [µg/mL]	ED50 (Streptococcus pneumoniae [11]) [mg/kg]	ED50 (Streptococcus pneumoniae [14]) [mg/kg]	MIC (Haemophilus influenzae) [µg/mL]	ED50 (Staphylococcus aureus [16]) [mg/kg]	also measured
C[C@H]1COc2c(N3CCN(C)CC3)c(F)cc3c(=O)c(C(=O)O)cn1c23.C[C@H]1COc2c(N3CCN(C)CC3)c(F)cc3c(=O)c(C(=O)O)cn1c23.O [LEVOFLOXACIN]	0.125	2	0.063	0.25	0.25	0.063	64	0.25	0.125	0.5	0.5	0.125	0.125	> 128	0.78	0.25	24.7	> 100	0.032	> 100	MIC [12]: 0.125 µg/mL; MIC (Staphylococcus aureus [13]): 0.125 µg/mL; MIC (Enterococcus faecalis): 0.5 µg/mL; MIC (Staphylococcus aureus [15]): > 128 µg/mL; MIC [17]: 0.25 µg/mL; MIC (Enterococcus faecium [18]): 4 µg/mL
CC[C@H]1OC(=O)[C@H](C)[C@@H](O[C@H]2C[C@@](C)(OC)[C@@H](O)[C@H](C)O2)[C@H](C)[C@@H](O[C@@H]2O[C@H](C)C[C@H](N(C)C)[C@H]2O)[C@](C)(OC)C[C@@H](C)C(=O)[C@H](C)[C@@H](O)[C@]1(C)O [CLARITHROMYCIN]	< 0.004	> 128	0.016 (≈ 0.0214 µM)	1 (≈ 1.34 µM)	< 0.004			< 0.004	2 (≈ 2.67 µM)		< 0.004	0.063 (≈ 0.0842 µM)				< 0.004					MIC [12]: 0.016 µg/mL (≈ 0.0214 µM)
CN[C@H](CC(C)C)C(=O)N[C@H]1C(=O)N[C@@H](CC(N)=O)C(=O)N[C@H]2C(=O)N[C@H]3C(=O)N[C@H](C(=O)N[C@H](C(=O)O)c4cc(O)cc(O)c4-c4cc3ccc4O)[C@H](O)c3ccc(c(Cl)c3)Oc3cc2cc(c3O[C@@H]2O[C@H](CO)[C@@H](O)[C@H](O)[C@H]2O[C@H]2C[C@](C)(N)[C@H](O)[C@H](C)O2)Oc2ccc(cc2Cl)[C@H]1O [VANCOMYCIN]	0.25 (≈ 0.173 µM)	0.125 (≈ 0.0863 µM)	> 128	0.5 (≈ 0.345 µM)	0.5 (≈ 0.345 µM)	64 (≈ 44.2 µM)	> 128	2 (≈ 1.38 µM)	0.25 (≈ 0.173 µM)		1 (≈ 0.69 µM)	2 (≈ 1.38 µM)			0.88	0.5 (≈ 0.345 µM)	1.06	2.37	> 128	1.01	Activity (Streptococcus pneumoniae [19]): 50%; MIC (Streptococcus pneumoniae [20]): 0.5 µg/mL (≈ 0.345 µM); MIC [12]: > 128 µg/mL; MIC (Streptococcus pneumoniae [21]): 0.25 µg/mL (≈ 0.173 µM)
CC[C@H]1OC(=O)[C@H](C)[C@@H](O[C@H]2C[C@@](C)(OC)[C@@H](O)[C@H](C)O2)[C@H](C)[C@@H](O[C@@H]2O[C@H](C)C[C@H](N(C)C)[C@H]2O)[C@](C)(O)C[C@@H](C)C(=O)[C@H](C)[C@@H](O)[C@]1(C)O [ERYTHROMYCIN]						0.032 (≈ 0.0436 µM)	> 128			0.008 (≈ 0.0109 µM)			0.125 (≈ 0.17 µM)	32 (≈ 43.6 µM)	2.55		1.48	> 100	2 (≈ 2.73 µM)	> 100	MIC (Streptococcus pneumoniae [20]): > 128 µg/mL; MIC (Staphylococcus aureus [13]): 0.063 µg/mL (≈ 0.0858 µM); MIC (Enterococcus faecalis): 2 µg/mL (≈ 2.73 µM); MIC (Staphylococcus aureus [15]): > 128 µg/mL; MIC (Streptococcus pneumoniae [21]): 0.016 µg/mL (≈ 0.0218 µM); MIC [17]: 0.063 µg/mL (≈ 0.0858 µM); MIC (Enterococcus faecium [18]): 1 µg/mL (≈ 1.36 µM)
CO/N=C(\C(=O)N[C@@H]1C(=O)N2C(C(=O)O)=C(CSc3nc(=O)c(O)nn3C)CS[C@H]12)c1csc(N)n1 [CEFTRIAXONE]						0.25 (≈ 0.451 µM)	> 128			0.016 (≈ 0.0289 µM)			2 (≈ 3.61 µM)	> 128	3.72		0.22	27.5	0.008 (≈ 0.0144 µM)	> 100	MIC (Streptococcus pneumoniae [20]): 0.5 µg/mL (≈ 0.902 µM); MIC (Staphylococcus aureus [13]): 2 µg/mL (≈ 3.61 µM); MIC (Enterococcus faecalis): 4 µg/mL (≈ 7.21 µM); MIC (Staphylococcus aureus [15]): > 128 µg/mL; MIC (Streptococcus pneumoniae [21]): 0.063 µg/mL (≈ 0.114 µM); MIC [17]: 2 µg/mL (≈ 3.61 µM); MIC (Enterococcus faecium [18]): 4 µg/mL (≈ 7.21 µM)
